From patent publication US9981950B2, “Triazoles as NR2B receptor inhibitors” (Janssen Pharmaceuticals, Inc., priority 2014, dated 2018)

Assays:
[1] = target: T1, rat NR1/NR2B receptor (Rattus norvegicus (Rat), UniProt P35439+Q00960); assay: NR2B binding assay: inhibition of specific [3H]-Ifenprodil binding to the rat NR1/NR2B receptor; settings: rat brain membranes, Hill-plot 2-parameter-model
Method: Inhibition of Specific Binding to the Rat NR1/NR2B Receptor
(§1) Male Wistar rats (180 to 200 g) were killed by suffocation in a CO2 chamber for two minutes. Whole brains without cerebellum were removed and dissected on ice, placed into closed vials and stored at −70° C.
Membrane fractions were prepared and tested using standard techniques. At the time of the assay, 1 g of the brains was placed into 25 ml of 50 mM Tris/10 mM EDTA buffer, pH 7.1, (25 vol. per g of original tissue) and homogenized for 30 sec at 20000 rpm with an Ultraturrax T25 (Jahnke & Kunkel, IKA-Labortechnik, Staufen, Germany). The homogenate was centrifuged at 4° C. for 10 min at 48000 g (OPTIMA L-70, Beckman, Palo Alto, Calif. 94304, USA).
The supernatant was discarded and the pellet was homogenized on ice for 30 sec at 20000 rpm with an Ultraturrax and again centrifuged at 48000 g for 30 minutes at 4° C. The resulted pellet was resuspended in 25 ml of 50 mM Tris/10 mM EDTA buffer, homogenized for 30 sec with an Ultraturrax, aliquoted, frozen at −70° C. and stored until use.
(§2) After thawing on the day of the assay, a 5 ml membrane aliquot was centrifuged at 48000 g for 30 min at 4° C. The pellet was resuspended in 5 ml of 5 mM Tris/1 mM EDTA buffer, pH 7.4, homogenized for 30 sec at 20000 rpm with an Ultraturrax and centrifuged at 48000 g for 30 min at 4° C. This was repeated twice. The final pellet was homogenized in 5 ml of 5 mM Tris/l mM EDTA buffer at 4° C. with an Ultraturrax and used for the Ifenprodil-binding assay as described in the following.
Nonspecific binding was estimated in the presence of […] CP101.606. The samples were incubated for 60 min. at 4° C.
The incubation was terminated by filtration of the membrane preparations using Filtermat B (Pharmacia, Uppsala Sweden) and a Micro Cell Harvester (Skatron, Lier, Norway). The Filtermat B had been presoaked with 1% polyethylene imine and carefully washed with 50 mM Tris/HCl-buffer pH 7.7 after the filtration to separate free and bound radioactivity.
The optimal amount of membrane preparation in the assay had been determined and optimized for each membrane preparation separately before the test.
For pipetting of the incubation mixture we routinely used the robot Biomek2000 (Fa. Beckman).
For determination of IC50 values the Hill-plot, 2-parameter-model was used.

[2] = target: hERG-receptor (Homo sapiens (Human), UniProt Q12809); assay: HERGBD: inhibition of specific 3H-Dofetilide binding to the hERG-receptor; settings: HEK cell membranes with human ERG, Hill-plot 2-parameter-model
Sequence of hERG-receptor (Q12809 whole entry): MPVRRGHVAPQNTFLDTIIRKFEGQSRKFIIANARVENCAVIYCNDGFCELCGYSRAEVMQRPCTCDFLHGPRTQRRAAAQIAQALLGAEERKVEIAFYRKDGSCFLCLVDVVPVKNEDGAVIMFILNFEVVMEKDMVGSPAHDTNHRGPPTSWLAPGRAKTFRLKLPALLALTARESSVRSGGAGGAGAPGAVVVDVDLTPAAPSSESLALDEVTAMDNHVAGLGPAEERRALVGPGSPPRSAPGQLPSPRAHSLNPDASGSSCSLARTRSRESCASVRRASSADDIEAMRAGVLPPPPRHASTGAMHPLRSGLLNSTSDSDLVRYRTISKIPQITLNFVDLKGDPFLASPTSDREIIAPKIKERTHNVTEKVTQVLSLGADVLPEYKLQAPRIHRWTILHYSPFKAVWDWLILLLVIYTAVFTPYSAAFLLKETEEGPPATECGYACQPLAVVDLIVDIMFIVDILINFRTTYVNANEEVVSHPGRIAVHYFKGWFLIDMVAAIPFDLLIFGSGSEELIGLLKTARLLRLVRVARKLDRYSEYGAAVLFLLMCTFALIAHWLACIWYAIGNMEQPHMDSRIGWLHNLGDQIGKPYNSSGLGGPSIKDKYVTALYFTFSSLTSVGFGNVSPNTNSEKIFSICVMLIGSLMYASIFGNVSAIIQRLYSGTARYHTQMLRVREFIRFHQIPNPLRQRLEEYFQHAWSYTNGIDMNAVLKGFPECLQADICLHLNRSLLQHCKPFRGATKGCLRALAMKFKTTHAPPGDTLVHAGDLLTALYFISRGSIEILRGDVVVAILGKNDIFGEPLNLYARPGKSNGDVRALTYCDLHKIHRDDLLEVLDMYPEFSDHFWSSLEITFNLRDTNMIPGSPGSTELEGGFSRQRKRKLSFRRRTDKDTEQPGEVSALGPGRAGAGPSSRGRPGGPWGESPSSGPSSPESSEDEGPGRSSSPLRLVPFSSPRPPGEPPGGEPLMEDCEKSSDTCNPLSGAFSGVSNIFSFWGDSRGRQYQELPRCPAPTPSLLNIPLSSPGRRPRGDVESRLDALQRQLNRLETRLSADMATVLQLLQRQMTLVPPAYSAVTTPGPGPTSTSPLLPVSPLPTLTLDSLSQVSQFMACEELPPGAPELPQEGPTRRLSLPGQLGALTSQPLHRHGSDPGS
Method: Inhibition of Specific Binding to the hERG-Receptor (HERGBD)
A HEK cell line with stable transfected human ERG receptor was used for the assay. The cells were grown adherently and maintained in DULBECCOS' MEM medium with 10% FBS, 1% non-essential amino acids, 1% Penicillin/Streptomycin and 400 μg/ml G418 (Calbiochem).
For binding assays and membrane preparations the cell culture medium was removed, cells were washed with PBS. Crude membranes for radioligand binding experiments were prepared by scraping the cells off the dishes in ice cold 20 mM HEPES/0.1 mM KCl/pH 7.2. The cell suspension was homogenized on ice (Ultra turrax, 3×20 sec.) and the homogenate was spun for 10 min (1° C., 1000 g, OPTIMA, SW28, 2800 U/min). The supernatant was than centrifuged for 40 min at 100000 g (1° C., OPTIMA, SW28, 23000 U/min). The membrane pellet was resuspended in 20 mM HEPES/0.1 mM KCl/pH 7.2, frozen and stored at −80° C.
After thawing on the day of the assay, the membrane suspension was diluted further with 20 mM HEPES/0.1 mM KCl/pH 7.2.
The incubation mixture of 200 μl contained 1.5 nmol/l 3H-Dofetilide, optimized amount of membrane preparation, 20 mM HEPES/0.1 mM KCl/(pH 7.2) and inhibitor in 1% DMSO. Nonspecific binding was estimated in the presence of […] Dofetilide. The samples were incubated for 90 min. at RT.
Binding was terminated by filtration of the incubated membrane preparations using Filtermat B (Pharmacia, Uppsala Sweden) and a Micro Cell Harvester (Skatron, Lier, Norway). The Filtermat B had been presoaked with 1% polyethylenimine and carefully washed with 0.05 M Tris/HCl-buffer pH=7.7 after the filtration to separate free and bound radioactivity. The filters were counted in a scintillation counter (Betaplate 1205, Berthold, Wildbad, Germany) in order to determine the specific binding of [^3H]-Dofetilide.
The optimal amount of membrane preparation in the assay was determined and optimized for each membrane preparation separately in front of using the membranes in compound testing.
For pipetting of the incubation mixture we routinely use the robot Biomek2000 (Fa. Beckman).

[3] = target: T1, rat NR1/NR2B receptor; assay: RRNR2BB: inhibition of specific binding to the rat NR1/NR2B receptor; settings: [3H]-Ifenprodil binding, rat brain membranes, Hill-plot 2-parameter-model
Method: RRNR2BB—Inhibition of Specific Binding to the Rat NR1/NR2B Receptor
as §1
Membrane fractions were prepared and tested using standard techniques. At the time of the assay, 1 g of the brains were placed into 25 ml of 50 mM Tris/10 mM EDTA buffer, pH=7.1, (25 vol. per g of original tissue) and was homogenized for 30 sec at 20000 U/min with an Ultraturrax T25 (Jahnke & Kunkel, IKA-Labortechnik, Staufen, Germany). The homogenate was centrifuged at 4° C. for 10 min at 48000 g (OPTIMA L-70, Beckman, Palo Alto, Calif. 94304, USA). The supernatant was discarded and the pellet was homogenized on ice for 30 sec at 20000 U/min with an Ultraturrax and again centrifuged at 48000 g for 30 minutes at 4° C. The resultant pellet was resuspended in 25 ml of 50 mM Tris/10 mM EDTA buffer, homogenized for 30 sec with an Ultraturrax, aliquoted, frozen at −70° C. and stored until use
as §2, with “aliquote” for “aliquot”, “pH=7.4,” for “pH 7.4,”, “U/min” for “rpm”, “This step” for “This”, “Tris/mM” for “Tris/l mM”, “assay.” for “assay as described in the following.”
Nonspecific binding was estimated in the presence of 10 M CP101.606. The samples were incubated for 60 min. at 4° C.
Binding was terminated by filtration of the incubated membrane preparations using Filtermat B (Pharmacia, Uppsala Sweden) and a Micro Cell Harvester (Skatron, Lier, Norway). The Filtermat B had been presoaked with 1% polyethylenimine and carefully washed with […] Tris/HCl-buffer pH=7.7 after the filtration to separate free and bound radioactivity.
For pipetting of the incubation mixture the robot Biomek2000 (Fa. Beckman) was used.
The IC50 values in the tables below were determined using the Hill-plot, 2-parameter-model.

T1 sequence (Q00960 27-1482, other chains not shown): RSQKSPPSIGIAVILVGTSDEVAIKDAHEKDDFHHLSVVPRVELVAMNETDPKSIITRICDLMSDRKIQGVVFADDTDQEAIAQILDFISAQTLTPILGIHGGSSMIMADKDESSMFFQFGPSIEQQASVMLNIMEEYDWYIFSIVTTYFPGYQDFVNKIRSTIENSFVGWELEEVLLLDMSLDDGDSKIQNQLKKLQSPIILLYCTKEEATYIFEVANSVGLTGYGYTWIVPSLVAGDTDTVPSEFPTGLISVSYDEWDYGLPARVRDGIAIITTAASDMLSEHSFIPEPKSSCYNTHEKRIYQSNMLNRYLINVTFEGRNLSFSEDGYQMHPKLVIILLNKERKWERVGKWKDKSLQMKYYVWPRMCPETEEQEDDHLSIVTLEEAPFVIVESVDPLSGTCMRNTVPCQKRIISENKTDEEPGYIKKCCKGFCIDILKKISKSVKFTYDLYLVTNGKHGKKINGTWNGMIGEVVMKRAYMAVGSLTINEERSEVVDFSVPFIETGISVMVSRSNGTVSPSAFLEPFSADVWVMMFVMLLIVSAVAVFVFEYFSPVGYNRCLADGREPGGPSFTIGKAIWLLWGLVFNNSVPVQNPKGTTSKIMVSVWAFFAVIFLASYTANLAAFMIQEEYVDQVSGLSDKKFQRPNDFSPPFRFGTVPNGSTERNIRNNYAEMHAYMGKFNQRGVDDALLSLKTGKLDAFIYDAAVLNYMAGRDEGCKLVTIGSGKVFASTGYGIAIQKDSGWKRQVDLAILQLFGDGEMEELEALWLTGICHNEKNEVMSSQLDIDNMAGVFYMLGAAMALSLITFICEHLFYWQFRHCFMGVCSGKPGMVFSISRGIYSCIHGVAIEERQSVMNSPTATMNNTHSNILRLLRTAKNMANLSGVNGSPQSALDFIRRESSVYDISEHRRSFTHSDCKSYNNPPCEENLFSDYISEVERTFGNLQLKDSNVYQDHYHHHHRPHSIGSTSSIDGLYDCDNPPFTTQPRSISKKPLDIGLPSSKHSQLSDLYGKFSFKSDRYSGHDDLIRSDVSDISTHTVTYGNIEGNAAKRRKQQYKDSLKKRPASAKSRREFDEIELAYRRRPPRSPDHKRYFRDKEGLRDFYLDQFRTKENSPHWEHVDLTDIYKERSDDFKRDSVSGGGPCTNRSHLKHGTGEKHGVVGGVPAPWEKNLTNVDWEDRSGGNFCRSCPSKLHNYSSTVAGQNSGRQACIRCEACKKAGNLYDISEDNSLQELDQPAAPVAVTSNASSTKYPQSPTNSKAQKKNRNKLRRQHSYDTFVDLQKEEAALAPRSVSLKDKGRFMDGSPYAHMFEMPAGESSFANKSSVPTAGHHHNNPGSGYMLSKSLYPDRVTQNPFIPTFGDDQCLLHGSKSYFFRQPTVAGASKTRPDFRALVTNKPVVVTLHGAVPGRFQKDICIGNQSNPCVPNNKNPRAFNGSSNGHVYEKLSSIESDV

Row | IC50 [1] [nM] | IC50 [3] [nM] | Structure (SMILES) | IC50 [2] [nM]
1 | 14300 | 14300 | Cc1ncnn1Cc1cn(-c2ccc(Cl)cc2)nn1 [Example 8, 1-(4-Chloro-phenyl)-4-(5-methyl-[1,2,4]triazol-1-ylmethyl)-1H-[1,2,3]triazole] | 48900
2 | 12500 | 12500 | Clc1ccc(-n2cc(Cn3ncnc3C3CCCC3)nn2)cc1 [Example 14, 1-(4-Chloro-phenyl)-4-(5-cyclopentyl-[1,2,4]triazol-1-ylmethyl)-1H-[1,2,3]triazole] | 30500
3 | 46.6 | 46.6 | CCCc1nccn1Cc1cn(-c2ccc(Cl)cc2)nn1 [Example 18, 1-(4-Chloro-phenyl)-4-(2-propyl-imidazol-1-ylmethyl)-1H-[1,2,3]triazole] | 2230
4 |  | > 10000 | Cc1nc(C2CCC2)n(Cc2cn(-c3ccc(Cl)cc3)nn2)n1 [Example 21, 1-(4-Chloro-phenyl)-4-(5-cyclobutyl-3-methyl-[1,2,4]triazol-1-ylmethyl)-1H-[1,2,3]triazole] | 3520
5 | 38.4 | 38.4 | Cc1nccn1Cc1cn(-c2ccc(Cl)cc2)nn1 [Example 24, 1-(4-Chloro-phenyl)-4-(2-methyl-imidazol-1-ylmethyl)-1H-[1,2,3]triazole] | 5640
6 | 38.9 | 38.9 | CCCCc1nccn1Cc1cn(-c2ccc(Cl)cc2)nn1 [Example 27, 4-(2-Butyl-imidazol-1-ylmethyl)-1-(4-chloro-phenyl)-1H-[1,2,3]triazole] | 570
7 | 573 | 573 | OCc1nccn1Cc1cn(-c2ccc(Cl)cc2)nn1 [Example 28, 4-(2-Hydroxymethyl-imidazol-1-ylmethyl)-1-(4-chloro-phenyl)-1H-[1,2,3]triazole] | 11200
8 |  | > 10000 | Cc1nncn1Cc1cn(-c2ccc(Cl)cc2)nn1 [Example 31, 1-(4-Chloro-phenyl)-4-(3-methyl-[1,2,4]triazol-4-ylmethyl)-1H-[1,2,3]triazole] | 22400
9 | 4.92 | 4.92 | Cc1nccn1Cc1cn(-c2ccc(Cl)c(Cl)c2)nn1 [Example 32, 1-(3,4-Dichloro-phenyl)-4-(2-methyl-imidazol-1-ylmethyl)-1H-[1,2,3]triazole] | 3930
10 | 4.65 | 4.65 | CCc1nccn1Cc1cn(-c2ccc(Cl)c(Cl)c2)nn1 [Example 33, 1-(3,4-Dichloro-phenyl)-4-(2-ethyl-imidazol-1-ylmethyl)-1H-[1,2,3]triazole] | 2230
11 | 17.9 | 17.9 | Clc1ccc(-n2cc(Cn3ccnc3C3CC3)nn2)cc1Cl [Example 36, 4-(2-Cyclopropyl-imidazol-1-ylmethyl)-1-(3,4-dichloro-phenyl)-1H-[1,2,3]triazole] | 1160
12 |  | > 10000 | Cc1nc(C)n(Cc2cn(-c3ccccc3)nn2)n1 [Example 46, 4-(3,5-Dimethyl-[1,2,4]triazol-1-ylmethyl)-1-phenyl-1H-[1,2,3]triazole] | 7580
13 | 8.08 | 8.08 | CC(F)(F)c1cc(-n2cc(Cn3ccnc3CCO)nn2)ccc1F [Example 106, 1-[3-(1,1-Difluoro-ethyl)-4-fluoro-phenyl]-4-[2-(2-hydroxy-ethyl)-imidazol-1-ylmethyl]-1H-[1,2,3]triazole] | 

Row | Structure (SMILES) | IC50 [1] [nM] | IC50 [3] [nM] | IC50 [2] [nM]
14 | CCCc1nccn1Cc1cn(-c2ccc(Cl)c(Cl)c2)nn1 [Example 34, 1-(3,4-Dichloro-phenyl)-4-(2-propyl-imidazol-1-ylmethyl)-1H-[1,2,3]triazole] | 7.67 | 7.67 | 1120
15 | CC(C)c1nccn1Cc1cn(-c2ccc(Cl)c(Cl)c2)nn1 [Example 35, 1-(3,4-Dichloro-phenyl)-4-(2-isopropyl-imidazol-1-ylmethyl)-1H-[1,2,3]triazole] | 7.4 | 7.4 | 5880
